Experimental data: patent publication US5171851A, “Imidazole substituted benzoxazine or benzothiazine derivatives” (Dong-A Pharm. Co., Ltd., priority 1990, dated 1992)
Values joined by “and” are separate entries in the source; they are usually repeats but may differ in a detail not shown here. Identical values can stand only once. Like-named read-outs stand apart in the source and are kept apart here. Blank lines part the entries; values can stand above or below the molecule they belong to.

Key:
[1] = tested on: blood perfused papillary muscle preparation; test: contractile power on blood perfused papillary muscle preparation; set-up: species or system dog; details: for activation at 0.001 mg: dose 1.0 ug; for activation at 0.003 mg: dose 3.0 ug; for activation at 0.01 mg: dose 10.0 ug; for activation at 0.03 mg: dose 30.0 ug; for ED 30 (developed tension of papillary muscle): least-square method
Protocol: Determination of contractile power on blood perfused papillary muscle preparation:
Dogs of either sex weighing 7-12 kg were anesthetized with sodium pentobarbital (30 mg/kg, i.v.). Heparin of 1000 unit/kg was administered to each animal intravenously. The animals were exsanguinated and heart was removed. The preparation was perfused through the cannulated anterior septal artery (ASA) with arterial blood from a donor dog at constant pressure of about […]. Donor dogs were anesthetized with sodium pentobarbital (30 mg/kg, i.v.). Heparin of 1000 units/kg was administered intravenously. The papillary muscle was stimulated with rectangular pulses of 5- ms duration and about 1.5 times the threshold voltage at a rate of 120 stimuli/min through bipolar electrodes. Resting tension was made to 2 g. The developed tension of papillary muscle was determined by Isometric tresducer. Detailed method was reporated by Matsumoto in Am J. Physiol. 218, 1459-1463 (1970). Test compound at the doses of 10-30 ul was injected in flowing blood in the gum tube connected to catheter. The inotropic effect of the test compounds was shown by change percent of developed tension compared with that prior to the administration of the test compounds.

[2] = tested on: blood-perfused sino-atrial preparation; test: sinus rate on blood-perfused sino-atrial preparation; set-up: species or system dog; details: for activation at 0.001 mg: dose 1.0 ug; for activation at 0.003 mg: dose 3.0 ug; for activation at 0.01 mg: dose 10.0 ug; for activation at 0.03 mg: dose 30.0 ug
Protocol: Determination of sinus rate on blood-perfused sino-atrial preparation: Mongrel gods of either sex weighing 7-12 kg were anesthetized with sodium pentoba rbital (30 mg/kg i.v.). Heparin ob 1000 unit/kg was administered to each animal intravenously and the animals were exsanguinated. Heart was removed and put in Krebs-Henseleit solution. Catheter was inserted into blood vessel between right coronary artery and SA nodes. Right atrium and catheter were together removed. Blood supplied from carotid artery of donor dog of either sex weighing 15-25 kg, was supplied to blood vessel cather from right coronary artery and SA node under constant blood pressure of 100 mmHG by use of Peristaltic pump. The resting tension of right atrial muscle was made to 2g. The sinus rate triggered by spontaneous contraction of atrial muscle was determined on Narco physiograph Narcotrace 4). Detailed method was reported by S. Chiba, et al. in Japanese Pharmacology 25, 433-439(1975). Doses of test compounds were injected into flowing blood in gum tube connected to the near part of the catheter inserted into right coronary artery. The effects on sinus rate were shown as percent compared with the sinus ratio prior to the injection of the test compounds.

[3] = target: T1, cyclic AMP phosphodiesterase (Canis lupus familiaris, UniProt A0A8I3NYE0); test: effect on cyclic AMP phosphodiesterase isolated from dog's heart; type: biochemical; details: substrate 1.0 uM; for inhibition at 10 µM / inhibition at 100 µM / Inhibitory effect on PDE activity: falls with concentration; for inhibition at 10 µM / inhibition at 100 µM: read-out: Inhibitory effect on PDE activity; for IC50: pH 8.0, read-out: IC 50 (50% inhibition of substrate hydrolysis); for Inhibitory effect on PDE activity: unit assumed
T1 construct: Two to four grams of left ventricular muscle was obtained; from tissue; host or cells: dog left ventricular muscle, detergent-extracted particulate fraction, DEAE-cellulose pool
T1 sequence (A0A8I3NYE0 1-1135): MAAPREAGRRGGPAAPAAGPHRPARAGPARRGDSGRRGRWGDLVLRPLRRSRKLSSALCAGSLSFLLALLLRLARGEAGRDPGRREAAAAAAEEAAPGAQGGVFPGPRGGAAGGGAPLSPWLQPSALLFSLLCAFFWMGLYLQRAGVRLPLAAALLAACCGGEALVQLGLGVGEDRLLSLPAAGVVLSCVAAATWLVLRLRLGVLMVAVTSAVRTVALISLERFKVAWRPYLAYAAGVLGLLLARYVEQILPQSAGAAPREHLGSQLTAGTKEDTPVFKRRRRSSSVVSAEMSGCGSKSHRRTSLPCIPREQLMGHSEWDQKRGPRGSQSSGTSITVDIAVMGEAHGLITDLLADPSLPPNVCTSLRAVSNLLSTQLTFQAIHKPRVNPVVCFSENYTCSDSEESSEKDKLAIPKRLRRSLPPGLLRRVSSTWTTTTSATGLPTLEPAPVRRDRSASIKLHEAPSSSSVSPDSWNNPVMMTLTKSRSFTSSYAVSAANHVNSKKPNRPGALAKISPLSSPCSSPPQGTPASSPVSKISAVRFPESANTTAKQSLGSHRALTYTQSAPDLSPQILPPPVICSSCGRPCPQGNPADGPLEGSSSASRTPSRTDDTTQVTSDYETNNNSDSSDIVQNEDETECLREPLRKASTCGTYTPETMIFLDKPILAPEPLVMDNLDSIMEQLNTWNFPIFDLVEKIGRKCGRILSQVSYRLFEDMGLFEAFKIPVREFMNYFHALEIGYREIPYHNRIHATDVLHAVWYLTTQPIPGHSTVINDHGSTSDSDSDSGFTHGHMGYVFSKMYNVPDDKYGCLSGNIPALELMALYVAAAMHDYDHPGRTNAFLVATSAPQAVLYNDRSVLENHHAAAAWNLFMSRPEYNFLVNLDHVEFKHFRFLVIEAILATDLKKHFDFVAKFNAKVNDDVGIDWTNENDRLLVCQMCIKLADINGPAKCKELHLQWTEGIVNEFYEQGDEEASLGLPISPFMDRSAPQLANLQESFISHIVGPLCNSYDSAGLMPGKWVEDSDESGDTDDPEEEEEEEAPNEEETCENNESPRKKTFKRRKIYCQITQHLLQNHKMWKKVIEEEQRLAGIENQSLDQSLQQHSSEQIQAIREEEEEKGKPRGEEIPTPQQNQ

anesthetized cats = test: cardiotonic effect on anesthetized cats; type: in vivo, cat; details: Felis catus; for change in vivo at 0.01 mg/kg: 0.01 mg/Kg iv; for change in vivo at 0.1 mg/kg: 0.1 mg/Kg iv; for change in vivo at 0.31 mg/kg: 0.31 mg/Kg iv
Protocol: Determination of cardiotonic effect on anesthetized cats: Male cats weighing about 3 kg were anesthetized with sodium pentobarbital (30 mg/kg, i.p.). The same anesthetic was infused intravenously at the does of 4 mg/kg/hr in order to maintain the anesthetic state and mechanically ventilated through a cuffed endotracheal tube, chest was opened by a midline incision and a catheter for measuring left ventricular pressure was inserted through apex into left ventricle and the left ventricular pressure was measured. LVdP/dt was determined by use of diffentiator from the left ventricular pressure. Systemic blood pressure was measured by the left femoral artery by a pressure transducer and heart rate was measured by a cardiotachometer triggered by blood pressure pulses. Test compound was injected into the femoral vein by use of cannule. After completion of the surgical procedures, the cats were allowed to recover about 30 minutes before drug administration. These compounds were dissolved in 0.9% physiological saline and diluted with saline. Solvent such as DMSO or DMF was also used, if necessary. Test compound of 0.1 ml/kg was used. Detailed method was reporated in J. Med. Chem. 30. 1279-87(1987).

[4] = Canis lupus familiaris, read-out: change of contractivity (%)
[5] = Canis lupus familiaris, read-out: change of sinus rate (%)

Molecule: Cc1nccn1-c1ccc2c(c1)COC(=O)N2 [6-(2-methylimidazol-1-yl)-(4H)-3,1-benzoxazine-2-one]
- activation at 0.001 mg [1, 4]: 0%
- activation at 0.003 mg [1, 4]: 2.44%
- activation at 0.01 mg [1, 4]: 8.57%
- activation at 0.03 mg [1, 4]: 13.5%
- ED 30 (developed tension of papillary muscle) [1]: > 1000 µg
- activation at 0.001 mg [2, 5]: 0%
- activation at 0.003 mg [2, 5]: 0%
- activation at 0.01 mg [2, 5]: 0.86%
- activation at 0.03 mg [2, 5]: 3.42%
- inhibition at 10 µM ([3]; 10 uM test compound): 51.7%
- inhibition at 100 µM ([3]; 100 uM test compound): 35.8%
- IC50 [3]: 12.8 µM

Molecule: O=C1Nc2ccc(-n3cnc4ccccc43)cc2CO1 [6-(benzimidazol-1-yl)-(4H)-3,1-benzoxazin-2-one]
- activation at 0.001 mg [1, 4]: 0%
- activation at 0.003 mg [1, 4]: 1.13%
- activation at 0.01 mg [1, 4]: 2.63%
- activation at 0.03 mg [1, 4]: 5.24%
- ED 30 (developed tension of papillary muscle) [1]: > 1000 µg
- activation at 0.001 mg [2, 5]: 0%
- activation at 0.003 mg [2, 5]: 0%
- activation at 0.01 mg [2, 5]: 0.3%
- activation at 0.03 mg [2, 5]: 0.75%
- inhibition at 10 µM ([3]; 10 uM test compound): 61.6%
- inhibition at 100 µM ([3]; 100 uM test compound): 30.1%

Molecule: 6-(2-methylimidazol-1-yl)-(4H)-3,1-benzimidazol-2-one
- Inhibitory effect on PDE activity ([3]; 0.1 uM test compound): 95.9%
- Inhibitory effect on PDE activity ([3]; 1 uM test compound): 86.8%
- Inhibitory effect on PDE activity ([3]; 10 uM test compound): 62.6%
- Inhibitory effect on PDE activity ([3]; 100 uM test compound): 37.9%
- IC50 [3]: 32.4 µM

Second part, led by results:

- IC50 [3]: 2.4 µM and 4.3 µM and 4.05 µM
Molecule: Cc1cn(-c2cc(C)c3c(c2)COC(=O)N3)cn1 [8-methyl-6-(4-methylimidazol-1-yl)-(4H)-3,1-benzoxazin-2-one]
- change in vivo at 0.01 mg/kg (anesthetized cats; read-out: HR (%)): 2%
- change in vivo at 0.01 mg/kg (anesthetized cats; read-out: LV dp/dt (%)): 20%
- change in vivo at 0.01 mg/kg (anesthetized cats; read-out: LVP (%)): 0.1%
- change in vivo at 0.01 mg/kg (anesthetized cats; read-out: SBP (%)): -1.7%
- change in vivo at 0.01 mg/kg (anesthetized cats; read-out: dBP): -8.5%
- change in vivo at 0.01 mg/kg (anesthetized cats; read-out: mBP (%)): -5.5%
- change in vivo at 0.1 mg/kg (anesthetized cats; read-out: HR (%)): 7.5%
- change in vivo at 0.1 mg/kg (anesthetized cats; read-out: LV dp/dt (%)): 50%
- change in vivo at 0.1 mg/kg (anesthetized cats; read-out: LVP (%)): 4.4%
- change in vivo at 0.1 mg/kg (anesthetized cats; read-out: SBP (%)): -6.6%
- change in vivo at 0.1 mg/kg (anesthetized cats; read-out: dBP): -20%
- change in vivo at 0.1 mg/kg (anesthetized cats; read-out: mBP (%)): -13.9%
- change in vivo at 0.31 mg/kg (anesthetized cats; read-out: HR (%)): 4.4%
- change in vivo at 0.31 mg/kg (anesthetized cats; read-out: LV dp/dt (%)): 40%
- change in vivo at 0.31 mg/kg (anesthetized cats; read-out: LVP (%)): 1.2%
- change in vivo at 0.31 mg/kg (anesthetized cats; read-out: SBP (%)): -3.4%
- change in vivo at 0.31 mg/kg (anesthetized cats; read-out: dBP): -14.3%
- change in vivo at 0.31 mg/kg (anesthetized cats; read-out: mBP (%)): -9.3%
- activation at 0.0001 mg ([1]; Canis lupus familiaris, dose 0.1 ug, read-out: change of contractivity (%)): 4.3%
- activation at 0.0003 mg ([1]; Canis lupus familiaris, dose 0.3 ug, read-out: change of contractivity (%)): 8.7%
- activation at 0.001 mg [1, 4]: 23.9%
- activation at 0.003 mg [1, 4]: 79.2%
- ED 30 (developed tension of papillary muscle) [1]: 1.2 µg
- activation at 0.0001 mg ([2]; Canis lupus familiaris, dose 0.1 ug, read-out: change of sinus rate (%)): 0.8%
- activation at 0.0003 mg ([2]; Canis lupus familiaris, dose 0.3 ug, read-out: change of sinus rate (%)): 1.7%
- activation at 0.001 mg [2, 5]: 6.6%
- activation at 0.003 mg [2, 5]: 5.8%
- change of sinus rate (%) ([2]; at the ED 30 dose): +5.0%

- inhibition at 10 µM ([3]; 10 uM test compound): 60%
- inhibition at 100 µM ([3]; 100 uM test compound): 41.8%
- IC50 [3]: 31 µM and 12.7 µM
Molecule: O=C1Nc2ccc(-n3ccnc3)cc2CO1 [6-(imidazol-1-yl)-(4H)-3,1-benzoxazin-2-one]
- activation at 0.001 mg [1, 4]: 3.33%
- activation at 0.003 mg [1, 4]: 6.95%
- activation at 0.01 mg [1, 4]: 9.76%
- activation at 0.03 mg [1, 4]: 16.2%
- ED 30 (developed tension of papillary muscle) [1]: > 1000 µg
- activation at 0.001 mg [2, 5]: 0%
- activation at 0.003 mg [2, 5]: 0.84%
- activation at 0.01 mg [2, 5]: 2.52%
- activation at 0.03 mg [2, 5]: 6.67%
